The target in experiment [1] is T1, tyrosinase (Agaricus bisporus, UniProt C7FF04).
T1 construct: purchased Sigma-Aldrich (St. Louis, MO, USA)
Format: biochemical, mushroom. Particulars: increasing CuCl2 0-240 μM; diphenolase activity. As for the experimental part: To investigate whether the binding of copper ions with the inhibitor takes place at the active site of tyrosinase, the assay was carried out according to the method by Ismaya with some modifications.[17] Stock solutions of each KADs (10 mM) were prepared in DMSO. Then, 0.33 mM solutions were prepared in a cuvette containing phosphate buffer (10 mM, pH 7.4), and treated with different concentrations of CuCl2 (0, 60, 120, 180 or 240 µM). After 10 min of incubation period at room temperature, absorbance was scanned from 240 to 600 nm. Moreover, the relative activity of tyrosinase was determined by adding 0.1 ml various concentrations of CuCl2–KADs complexes from the previous step. The reaction system and the method were the same as the determination of diphenolase activity.

In experiment [2] the target is T2, mushroom tyrosinase (Agaricus bisporus, UniProt C7FF04).
T2 construct: purchased Sigma-Aldrich (St. Louis, MO, USA)
Nature of the experiment: Diphenolase activity of mushroom tyrosinase (L-DOPA as substrate), Lineweaver-Burk kinetics. Format: biochemical. Particulars: for Inhibition Type / Inhibition Mechanism: diphenolase; for Inhibition Type: Lineweaver-Burk plots; for Inhibition Mechanism: enzyme activity vs enzyme concentration plots; for Inhibition constant KIS: enzyme-substrate complex, plot of vertical intercepts vs inhibitor concentration; for Ki: free enzyme, plot of slopes vs inhibitor concentration, read-out: Inhibition constant KI. As for the experimental part:
(§1) The reaction system (3 ml) contained 1 mM L-Tyr or 0.5 mM L-DOPA and enzyme in 50 mM Na2HPO4–NaH2PO4 buffer (pH 6.8) and different concentrations of KADs. The KADs were dissolved in DMSO and diluted to appropriate concentration, such that the final concentration of DMSO is maintained at 3.3%. […] The enzyme activity was evaluated by increasing the absorbance at 475 nm accompanying the oxidation of the substrates with a molar absorption coefficient of 3700 (M^−1 cm^−1). […] The reaction was carried out at 37 °C. A Thermo […] GO spectrophotometer was used for absorbance and kinetic measure.

For experiment [3], the target named is T1, tyrosinase. The experiment in a line: Intrinsic fluorescence quenching of tyrosinase (Stern-Volmer). Format: binding, mushroom. As for the experimental part: Fluorescence spectra were determined as previously reported by Zhu.[12] Cary Eclipse fluorescence spectrophotometer was used to record the fluorescence intensities at an excitation wavelength of 280 nm, and emission and excitation slit widths were 10 nm and 5 nm, respectively. At wavelengths of 300–450 nm, fluorescence emission spectra were recorded. In this assay, 10 μL of KADs of different concentrations were incorporated with 2 ml tyrosinase solution (0.2 mg/ml).
The fluorescence quenching data expressed as the fluorescence intensity against KADs concentration. Fluorescence quenching was calculated using the Stern–Volmer equation: F0/F = 1 + KSV[Q] Where F0 is the fluorescence intensities of tyrosinase, F is the fluorescence intensities after addition of the quencher, [Q] is the concentration of the quencher and KSV is the Stern–Volmer quenching constant. For the calculation of biomolecular quenching constants, the data were plotted as F0/F against [Q], with the biomolecular quenching constants calculated by linear regression.
There are two known fluorescence quenching mechanisms: static quenching is caused by complex formation while dynamic quenching is caused by collisional processes.[13] For the static quenching, the KSV value must be larger than 100 M^−1 and the apparent binding constant (KA) and the binding sites (n) were estimated by plots of log[(F0−F)/F] versus log[Q] using the following equation:[14] log ((F0 − F)/F) = logKA + nlog [Q]

In experiment [4] the target is T2, mushroom tyrosinase. Particulars: L-Tyr substrate, read-out: IC50 Monophenolase; cited from earlier work.
Experiment [5] has as its target T2, mushroom tyrosinase. The settings on record: L-DOPA substrate, read-out: IC50 Diphenolase; cited from earlier work.
Experiment [6] has as its target T2, mushroom tyrosinase. Nature of the experiment: Monophenolase activity of mushroom tyrosinase (L-Tyr as substrate). Type of experiment: biochemical. The settings on record: maximum concentration 20 μM. As to the method: as §1
A short description of experiment [7]: DPPH free-radical scavenging assay. As for the experimental part: (§2) The antioxidant capacities of compounds usually analysed through DPPH and ABTS^+ free-radical scavenging assays. The DPPH free-radical scavenging was conducted according to the procedure described by Chen.[18] Stock solution (0.2 mM DPPH) was prepared in 95% methyl alcohol and diluted to with OD value of 1.1 ± 0.05 at 517 nm for analysis. Briefly, 0.1 ml of compounds dissolved in DMSO at different concentrations (50, 200, 400 and 800 μg/ml) were added to DPPH with a methyl alcohol solution (0.2 mM, 2.9 ml). The mixture was shaken gently and absorbance was read at 517 nm every 5 min, a total of 30 min. The ABTS^+ free-radical scavenging activity assay was performed as described by Ai[9] with slight modification. 7 mM ABTS^+ and 2.45 mM K2S2O8 were dissolved in 10 mM sodium phosphate buffer and then placed at dark room for 16 h to obtain ABTS^+ stock solution. […] After 6 min of incubation period at room temperature, absorbance was read at 714 nm. The scavenging capacity of the antioxidant for the free-radical was calculated according to the following equation: Radical scavenging effect (%) = (1 − A1/A0) × 100% where A0 is the absorbance of blank control and A1 is the absorbance in the presence of sample. Data are represented from three independent experiments, and the mean values were calculated. […]
For orientation: Loss of DPPH colour is used to gauge radical scavenging.

A short description of experiment [8]: ABTS+ free-radical scavenging assay. As to the method: as §2
The subject of the next experiment is B16F10 cell. Particulars: cited from earlier work.

A word on the Ki: it is a measure of affinity in units of concentration, obtained from inhibition or displacement. The term Kd denotes the free concentration of one partner at which half of the binding sites on the other are occupied at equilibrium, for simple one-to-one binding. As a reminder, the IC50 is the concentration that inhibits the measured activity by half.

The structures appear in SMILES notation. Read-outs that look alike come from different tables or passages of the source.

T2 sequence (C7FF04 1-392): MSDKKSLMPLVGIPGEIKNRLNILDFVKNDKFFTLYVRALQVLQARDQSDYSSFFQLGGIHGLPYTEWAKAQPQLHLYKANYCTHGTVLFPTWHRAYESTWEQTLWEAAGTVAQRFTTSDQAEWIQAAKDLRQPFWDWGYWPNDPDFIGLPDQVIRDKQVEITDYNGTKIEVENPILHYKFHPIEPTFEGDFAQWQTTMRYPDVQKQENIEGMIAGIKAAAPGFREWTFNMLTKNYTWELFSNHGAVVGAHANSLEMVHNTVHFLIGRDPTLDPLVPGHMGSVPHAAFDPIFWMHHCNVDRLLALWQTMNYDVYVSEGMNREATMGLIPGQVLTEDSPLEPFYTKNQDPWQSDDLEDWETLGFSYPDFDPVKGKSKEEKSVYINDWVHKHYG
T1 sequence (C7FF04 1-392): as above

For the compound `N[C@@H](Cc1ccc(O)c(O)c1)C(=O)O` [DOPA, 3,4-dihydroxyphenylalanine, reference compound], on tyrosinase [1], the “Change of relative tyrosinase activity after treatment with Cu2+” value (shortened to “Change of relative tyrosinase activity”) was “almost no changes”.
For the compound `Nn1c(N/N=C/C=C/c2ccccc2)nnc1SCc1cc(=O)c(O)co1` [KAD1], at mushroom tyrosinase [2], the “Inhibition Type” value was “Mixed”, the “Inhibition Mechanism” value is on record as “Reversible”, the “Inhibition constant KIS” value was 45.50 µM and the Ki came to 4.95 µM. Moreover, at tyrosinase [3], binding was put at a Kd of 34.8 µM. In addition, at tyrosinase [3] (λex 280 nm), the “KSV (Stern-Volmer quenching constant)” value came to 58400 M⁻¹, the Type of quenching result is “Static” and the “n (binding sites)” value is 0.9394. Also, on tyrosinase [1], the “Change of relative tyrosinase activity” value was determined as 1.5 times. For the same compound, at mushroom tyrosinase [4], the IC50 is 21.6 µM. In addition, at mushroom tyrosinase [5], the IC50 was 8.33 ± 0.22 µM.
As to `COc1ccccc1C=CC=NNc1nnc(SCc2cc(=O)c(O)co2)n1N` [KAD2], at mushroom tyrosinase [6], the “Lag time of monophenolase activity” value amounted to 6.7 min. The “Steady-state activity of monophenolase decreased to” value on mushroom tyrosinase [6] (remaining activity) came out at 48.29%. Also, at mushroom tyrosinase [2], the “Inhibition Type” value is on record as “Mixed”, the “Inhibition Mechanism” value is “Reversible”, the “Inhibition constant KIS” value was 9.18 µM and the inhibition constant (Ki) came to 6.3 µM. Further, at tyrosinase [3] (λex 280 nm), the “KA (apparent binding constant)” value was found to be 141000 M⁻¹, the “KSV (Stern-Volmer quenching constant)” value came out at 57000 M⁻¹, the Type of quenching entry is on record as “Static” and the “n (binding sites)” value came to 1.0394. In addition, the “Change of relative tyrosinase activity” value on tyrosinase [1] is reported as 2 times. Also, in experiment [7], the “IC50 of DPPH” value stood at 227.80 µg/mL. Besides, in [8], the “IC50 of ABTS+” value turned out to be 126.63 µg/mL. Further, the IC50 at mushroom tyrosinase [4] is 20.5 µM. Moreover, the IC50 on mushroom tyrosinase [5] is 7.5 ± 0.13 µM. For the same compound, the Inhibition of melanogenesis entry with B16F10 cell is on record as “effectively inhibit melanogenesis”.

The values are drawn from article PMC6522964 (Journal of Enzyme Inhibition and Medicinal Chemistry, 2019).
